# Results as given in patent US20220040129A1, “TREATMENT OF HYPERAMMONEMIA IN PATIENTS WITH RENAL INSUFFICIENCY” (RECORDATI S.p.A., priority 2019, published 2022).
# Like-named read-outs stand apart in the source and are kept apart here.
# Tests used:
# Assay type in all cases: in vivo, human
# [1] = test system: plasma NH3; assay: Retrospective review of PA, MMA, IVA decompensation episodes: plasma NH3 and clinical findings
# Protocol: […] […] Plasma ammonia (NH3) levels were measured up to a maximum of 15 days from the start of treatment. […] Concomitant standard of care therapies included carnitine, arginine, hydroxocobalamin, biotin, thiamine, riboflavin and glucose.
# [2] = test system: plasma NH3; assay: Plasma NH3 reduction in Propensity Matching Score (PMS) Population
# Protocol: Episodes treated with extracorporeal detoxification (HD, HF, PD) during the timeframe of the analysis were excluded. There were 12 patients in each group, and NH3 levels were measured in 12- and 24-hour periods over 120 hours. […] The two populations analyzed included: 1) Population with baseline plasma NH3 levels over 100 micromol/L in non-neonate or 150 micromol/L in neonate; 2) Propensity Matching Score (PMS) Population. […] These rates of decrease were confirmed to be statistically significant.
# [3] = CARIV-A-001 Part A: single ascending IV doses over 20 minutes in healthy subjects; conditions: for CL renal / AUC(0-t) / AUC(0-inf) / clearance / Cmax / half-life / Vd: both sexes, human, iv; for CL renal: plasma and urine; for AUC(0-t) / AUC(0-inf) / clearance / Cmax / half-life / Vd: plasma
# Protocol: This study was conducted in healthy male or female volunteers, at a single site to assess the safety and PK profile of an IV formulation of Carbaglu and to determine the absolute bioavailability of the current marketed oral formulation of Carbaglu.
# The levels of CGA in plasma and urine were analysed using a fully validated method, which included LC-MS/MS analysis. The PK data were analysed based on a non-compartmental model. A model-based approach was implemented for the characterization of the PK properties of the IV formulation in order to estimate the level of PK exposure after different doses administered with different duration of infusion. […] The PK parameters were determined using SAS (version 9.3), and modelling of the PK data was performed using NONMEM (version 7.3, ICON Solutions). PART A: Mono-Centre, Randomized, Successive Groups, Double-Blind, Placebo-Controlled Study in Healthy Male and Female Subjects
# Each cohort included a minimum of 3 and maximum of 5 subjects of each of the two genders.
# Three loading doses of CGA over 20 minutes were tested by IV administration, 3.5 mg/kg, 5.0 mg/kg and 7.5 mg/kg. For each of these three doses, 6 subjects were administered CGA and 2 received the placebo.
# Plasma concentrations of CGA were measured at 18 timepoints, including a sample preceding the start of the administration, and then between 10 minutes and 48 hours following the initiation of the IV infusion.
# The PK analysis of Carbaglu was conducted by using standard non-compartmental approach.
smiles,measurement,setting,value
"NC(=O)N[C@@H](CCC(=O)O)C(=O)O [carglumic acid, N-carbamoyl-L-glutamic acid]",Mean reduction in plasma NH3 levels from baseline,[1]; 36-48 hours from treatment initiation,−63%
same,Differences in plasma ammonia level reduction between pediatric and adult patients with PA or MMA,"[1]; 51 patients (27 PA, 24 MMA)",no apparent differences
same,Median change in the number of clinical findings from baseline to endpoint,"[1]; clinical, laboratory, neurological, psychiatric, respiratory findings and feeding difficulties",−4.0
same,Normalization of the neurological findings,"[1]; human, in vivo",50 % of episodes
same,Reduction of mean plasma NH3 levels from baseline compared with NH3 Scav alone,"[2]; 12 patients per group, over 120 hours",consistent and meaningful reduction
same,Median reduction of plasma NH3,[2]; 24 hours post dose,61%
same,"Plasma levels observed, up to","[3]; IV administration over 20 minutes, healthy volunteers","up to 26,500 ng/mL"
same,"Dose dependence of AUCinf, AUClast and Cmax",[3]; IV doses in the range of 3.5 mg/kg to 7.5 mg/kg,increase linearly
same,Percent of dose excreted in urine,"[3]; IV over 20 minutes, stable across the doses evaluated",~75%
same,Concentration up to which linearity of PK was shown,[3]; Part A,up to 26.5 μg/mL
same,Dose excreted in the urine as parent compound over 24 hours,[3]; after IV administration,75 % of the dose
same,CL renal,"[3]; 3.5 mg/kg, IV over 20 minutes, 3.5 mg/kg, read-out: Renal Clearance (RCl), Mean",4.33 mL/min/kg
same,CL renal,"[3]; 3.5 mg/kg, IV over 20 minutes, 3.5 mg/kg, read-out: Renal Clearance (RCl), Median",4.17 mL/min/kg
same,CL renal,"[3]; 3.5 mg/kg, IV over 20 minutes, 3.5 mg/kg, read-out: Renal Clearance (RCl), Range",3.33 to 5 mL/min/kg
same,CL renal,"[3]; 5 mg/kg, IV over 20 minutes, 5.0 mg/kg, read-out: Renal Clearance (RCl), Mean",3.83 mL/min/kg
same,CL renal,"[3]; 5 mg/kg, IV over 20 minutes, 5.0 mg/kg, read-out: Renal Clearance (RCl), Median",3.67 mL/min/kg
same,CL renal,"[3]; 5 mg/kg, IV over 20 minutes, 5.0 mg/kg, read-out: Renal Clearance (RCl), Range",3.17 to 5.17 mL/min/kg
same,CL renal,"[3]; 7.5 mg/kg, IV over 20 minutes, 7.5 mg/kg, read-out: Renal Clearance (RCl), Mean",4.33 mL/min/kg
same,CL renal,"[3]; 7.5 mg/kg, IV over 20 minutes, 7.5 mg/kg, read-out: Renal Clearance (RCl), Median",4.17 mL/min/kg
same,CL renal,"[3]; 7.5 mg/kg, IV over 20 minutes, 7.5 mg/kg, read-out: Renal Clearance (RCl), Range",3.5 to 5.33 mL/min/kg
same,CL renal,"[3]; IV over 20 minutes, stable across doses, read-out: Renal clearance (converted)",~4.17 mL/min/kg
same,CL renal,"[3]; after IV administration, read-out: Renal clearance, median",265 mL/min
same,CL renal,"[3]; after IV administration, read-out: Renal clearance, range",183 to 467 mL/min
same,AUC(0-t),"[3]; 3.5 mg/kg, IV over 20 minutes, 3.5 mg/kg, read-out: AUC24h, Mean",9850 ng·h/mL
same,AUC(0-t),"[3]; 3.5 mg/kg, IV over 20 minutes, 3.5 mg/kg, read-out: AUC24h, Median",9690 ng·h/mL
same,AUC(0-t),"[3]; 3.5 mg/kg, IV over 20 minutes, 3.5 mg/kg, read-out: AUC24h, Range",8990 to 11000 ng·h/mL
same,AUC(0-inf),"[3]; 3.5 mg/kg, IV over 20 minutes, 3.5 mg/kg, read-out: AUCinf, Mean",11000 ng·h/mL
same,AUC(0-inf),"[3]; 3.5 mg/kg, IV over 20 minutes, 3.5 mg/kg, read-out: AUCinf, Median",10900 ng·h/mL
same,AUC(0-inf),"[3]; 3.5 mg/kg, IV over 20 minutes, 3.5 mg/kg, read-out: AUCinf, Range",9740 to 12500 ng·h/mL
same,AUC(0-t),"[3]; 3.5 mg/kg, IV over 20 minutes, 3.5 mg/kg, read-out: AUClast-timepoint, Mean",10200 ng·h/mL
same,AUC(0-t),"[3]; 3.5 mg/kg, IV over 20 minutes, 3.5 mg/kg, read-out: AUClast-timepoint, Median",10100 ng·h/mL
same,AUC(0-t),"[3]; 3.5 mg/kg, IV over 20 minutes, 3.5 mg/kg, read-out: AUClast-timepoint, Range",8990 to 11500 ng·h/mL
same,clearance,"[3]; 3.5 mg/kg, IV over 20 minutes, 3.5 mg/kg, read-out: Clearance (Cl), Mean",5.33 mL/min/kg
same,clearance,"[3]; 3.5 mg/kg, IV over 20 minutes, 3.5 mg/kg, read-out: Clearance (Cl), Median",5.33 mL/min/kg
same,clearance,"[3]; 3.5 mg/kg, IV over 20 minutes, 3.5 mg/kg, read-out: Clearance (Cl), Range",4.67 to 6 mL/min/kg
same,Cmax,"[3]; 3.5 mg/kg, IV over 20 minutes, 3.5 mg/kg, read-out: Cmax, Mean",11400 ng/mL
same,Cmax,"[3]; 3.5 mg/kg, IV over 20 minutes, 3.5 mg/kg, read-out: Cmax, Median",11400 ng/mL
same,Cmax,"[3]; 3.5 mg/kg, IV over 20 minutes, 3.5 mg/kg, read-out: Cmax, Range",10700 to 12300 ng/mL
same,half-life,"[3]; 3.5 mg/kg, IV over 20 minutes, 3.5 mg/kg, read-out: T1/2, Mean",20.6 h
same,half-life,"[3]; 3.5 mg/kg, IV over 20 minutes, 3.5 mg/kg, read-out: T1/2, Median",21.1 h
same,half-life,"[3]; 3.5 mg/kg, IV over 20 minutes, 3.5 mg/kg, read-out: T1/2, Range",6.6 to 36.1 h
same,Vd,"[3]; 3.5 mg/kg, IV over 20 minutes, 3.5 mg/kg, read-out: Volume of Distribution (Vd), Mean",9.28 L/kg
same,Vd,"[3]; 3.5 mg/kg, IV over 20 minutes, 3.5 mg/kg, read-out: Volume of Distribution (Vd), Median",8.75 L/kg
same,Vd,"[3]; 3.5 mg/kg, IV over 20 minutes, 3.5 mg/kg, read-out: Volume of Distribution (Vd), Range",3.26 to 15.5 L/kg
same,AUC(0-t),"[3]; 5 mg/kg, IV over 20 minutes, 5.0 mg/kg, read-out: AUC24h, Mean",14800 ng·h/mL
same,AUC(0-t),"[3]; 5 mg/kg, IV over 20 minutes, 5.0 mg/kg, read-out: AUC24h, Median",14900 ng·h/mL
same,AUC(0-t),"[3]; 5 mg/kg, IV over 20 minutes, 5.0 mg/kg, read-out: AUC24h, Range",11100 to 19300 ng·h/mL
same,AUC(0-inf),"[3]; 5 mg/kg, IV over 20 minutes, 5.0 mg/kg, read-out: AUCinf, Mean",16100 ng·h/mL
same,AUC(0-inf),"[3]; 5 mg/kg, IV over 20 minutes, 5.0 mg/kg, read-out: AUCinf, Median",16600 ng·h/mL
